The source made the active and inactive calls. The rule behind the calls is not given here.
What was measured:
Mus musculus [1] = experiment: Antiobesity activity in mouse assessed as reduction in utero fat at 0.04% administered every day through diet for 10 days measured after day 10 relative to control; format: functional
Mus musculus [2] = experiment: Antiobesity activity in mouse assessed as reduction in utero fat administered every day through diet for 10 days measured after day 10; format: functional; details: 240 h
Mus musculus [3] = experiment: Toxicity in mouse assessed as liver hypertrophy at 1000 mg/kg, po administered for 21 days; format: organism-based; set-up: dose 1000 mg/kg, route oral; details: in vivo, 504 h
[4] = Chronic toxicity in po dosed mouse assessed as mortality administered as qd for 21 days; format: organism-based; details: in vivo, read-out: MNTD
[5] = Therapeutic index, ratio of MNTD for chronic toxicity in po dosed mouse to ED25 for antiobesity activity in mouse assessed as reduction in utero fat; format: organism-based; details: in vivo, read-out: TI

Row | Compound | Activity (Mus musculus [1]) | also measured
1 | CC(C)NCC(O)COc1c(C(C)(C)C)cc(S(=O)(=O)c2ccc(Cl)cc2)cc1C(C)(C)C (stereo not given) | inactive | 
2 | COc1ccc(-c2cc(C(C)(C)C)c(OCC(O)CNC(C)C)c(C(C)(C)C)c2)cc1 (stereo not given) | inactive | 
3 | CC(C)(C)c1cc(/C=C/c2ccccc2)cc(C(C)(C)C)c1OCC(O)CNCc1ccccc1 (stereo not given) | inactive | 
4 | CC(C)NCC(O)COc1c(C(C)(C)C)cc([S+]([O-])c2ccc(Cl)cc2)cc1C(C)(C)C.O=C(O)/C=C\C(=O)O (stereo not given) | 23% | ED25 (Mus musculus [2]): 45 mg/kg; Activity (Mus musculus [3]): Non-toxic; MTD at 504 h [4]: 75 mg/kg
5 | CC(C)NCC(O)COc1c(C(C)(C)C)cc(Sc2ccccc2)cc1C(C)(C)C (stereo not given) | inactive | 
6 | COc1ccc(/C=C/c2cc(C(C)(C)C)c(OCC(O)CNC(C)(C)C)c(C(C)(C)C)c2)cc1Br (stereo not given) | inactive | 
7 | CC(C)NCC(O)COc1c(C(C)(C)C)cc(/C=C/c2ccc(Cl)cc2)cc1C(C)(C)C (stereo not given) | 22% | ED25 (Mus musculus [2]): 100 mg/kg; Activity (Mus musculus [3]): Non-toxic; selectivity ratio [5]: 1; MTD at 504 h [4]: 100 mg/kg
8 | CC(C)NCC(O)COc1ccc(Sc2ccc(Cl)cc2)cc1 (stereo not given) | 22% | 
9 | CCc1cc(/C=C/c2ccccc2F)cc(CC)c1OCC(O)CNC(C)C (stereo not given) | 37% | 
10 | CC(C)NCC(O)COc1c(C(C)(C)C)cc(/C=C/c2ccc(F)cc2)cc1C(C)(C)C (stereo not given) | inactive | 
11 | CC(C)NCC(O)COc1ccc(C#Cc2ccccc2)cc1 (stereo not given) | 28% | 
12 | CC(C)NCC(O)COc1c(C(C)(C)C)cc(/C=C/c2ccc([N+](=O)[O-])cc2)cc1C(C)(C)C (stereo not given) | 45% | 
13 | CC(C)NCC(O)COc1c(C(C)C)cc(/C=C/c2ccccc2)cc1C(C)C (stereo not given) | 20% | 
14 | CC(C)NCC(O)COc1c(C(C)(C)C)cc(/C=C/c2ccccc2Cl)cc1C(C)(C)C (stereo not given) | inactive | 
15 | CC(C)CNCC(O)COc1c(C(C)(C)C)cc(/C=C/c2ccccc2)cc1C(C)(C)C (stereo not given) | inactive | 
16 | CC(C)NCC(O)COc1c(C(C)(C)C)cc(Oc2ccc(Cl)cc2)cc1C(C)(C)C (stereo not given) | inactive | 
17 | CCCCN(CCCC)CCCNCC(O)COc1c(C(C)(C)C)cc(/C=C/c2ccccc2)cc1C(C)(C)C.O=C(O)/C=C\C(=O)O (stereo not given) | 25% | 
18 | Cc1ccccc1/C=C/c1cc(C(C)(C)C)c(OCC(O)CNC(C)C)c(C(C)(C)C)c1 (stereo not given) | 42% | 
19 | CC(C)NCC(O)COc1c(C(C)(C)C)cc(/C=C/c2ccc(Cl)c(Cl)c2)cc1C(C)(C)C (stereo not given) | inactive | 
20 | COc1ccc(/C=C/c2cc(C(C)(C)C)c(OCC(O)CNC(C)C)c(C(C)(C)C)c2)cc1Br (stereo not given) | inactive | 

Row | Compound | Activity (Mus musculus [1]) | also measured
21 | CC(C)NCC(O)COc1c(C(C)(C)C)cc(C#Cc2ccccc2)cc1C(C)(C)C.O=C(O)/C=C\C(=O)O (stereo not given) | 25% | 
22 | CC(C)(C)c1cc(/C=C/c2ccccc2)cc(C(C)(C)C)c1OCC(O)CNCCO (stereo not given) | inactive | 
23 | CN(C)CCNCC(O)COc1c(C(C)(C)C)cc(/C=C/c2ccccc2)cc1C(C)(C)C (stereo not given) | inactive | 
24 | Cc1cc(/C=C/c2ccccc2)cc(C(C)(C)C)c1OCC(O)CNC(C)C (stereo not given) | inactive | 
25 | CC(C)NCC(O)COc1c(C(C)(C)C)cc(Sc2ccc(Cl)cc2)cc1C(C)(C)C (stereo not given) | inactive | 
26 | CC(C)NCC(O)COc1c(C(C)(C)C)cc(/C=C/c2cccc(Cl)c2)cc1C(C)(C)C (stereo not given) | 21% | ED25 (Mus musculus [2]): 72 mg/kg; Activity (Mus musculus [3]): Non-toxic; selectivity ratio [5]: 1.4; MTD at 504 h [4]: 100 mg/kg
27 | CCCCCCNCC(O)COc1c(C(C)(C)C)cc(/C=C/c2ccccc2)cc1C(C)(C)C (stereo not given) | inactive | 
28 | CC(C)NCC(O)COc1c(C(C)(C)C)cc(Oc2ccccc2)cc1C(C)(C)C.O=C(O)/C=C\C(=O)O (stereo not given) | 20% | ED25 (Mus musculus [2]): 20 mg/kg; Activity (Mus musculus [3]): Non-toxic; MTD at 504 h [4]: 100 mg/kg
29 | CC(C)NCC(O)COc1ccc(/C=C/c2ccncc2)cc1 (stereo not given) | 24% | 
30 | CCC(C)NCC(O)COc1c(C(C)(C)C)cc(/C=C/c2ccccc2)cc1C(C)(C)C (stereo not given) | 23% | 
31 | CC(C)NCC(O)COc1ccc(-c2ccccc2)cc1 (stereo not given) | 24% | 
32 | CC(C)(C)c1cc(/C=C/c2ccccc2)cc(C(C)(C)C)c1OCC(O)CNCCNC(=O)Nc1ccccc1 (stereo not given) | inactive | 
33 | CCCCNCC(O)COc1c(C(C)(C)C)cc(/C=C/c2ccccc2)cc1C(C)(C)C (stereo not given) | 25% | 
34 | CC(C)NCC(O)COc1c(C(C)(C)C)cc(/C=C/c2ccc3ccccc3c2)cc1C(C)(C)C (stereo not given) | inactive | 
35 | CC(C)(C)c1cc(/C=C/c2ccccc2)cc(C(C)(C)C)c1OCC(O)CNC1CC1 (stereo not given) | inactive | 
36 | CC(C)NCC(O)COc1ccc(-c2ccc(Cl)cc2)cc1.Cl (stereo not given) | 23% | ED25 (Mus musculus [2]): 50 mg/kg; Activity (Mus musculus [3]): Non-toxic; selectivity ratio [5]: 0.5; MTD at 504 h [4]: 25 mg/kg
37 | CCN(CC)CCCNCC(O)COc1c(C(C)(C)C)cc(/C=C/c2ccccc2)cc1C(C)(C)C (stereo not given) | inactive | 
38 | CC(C)NCC(O)COc1c(C(C)(C)C)cc(CCc2ccccc2)cc1C(C)(C)C (stereo not given) | inactive | 
39 | CC(C)NCC(O)COc1c(C2CCCCC2)cc(/C=C/c2ccccc2)cc1C1CCCCC1.O=C(O)/C=C\C(=O)O (stereo not given) | 27% | ED25 (Mus musculus [2]): 38 mg/kg; Activity (Mus musculus [3]): Non-toxic; MTD at 504 h [4]: 100 mg/kg
40 | CC(C)NCC(O)COc1c(C(C)(C)C)cc(S(=O)(=O)c2ccccc2)cc1C(C)(C)C (stereo not given) | inactive | 

Row | Compound | Activity (Mus musculus [1]) | also measured
41 | CC(C)NCC(O)COc1c(C(C)(C)C)cc(/C=C/c2ccccc2)cc1C(C)(C)C (stereo not given) | 39% | 
42 | CC(C)NCC(O)COc1c(C(C)(C)C)cc(/C=C/c2ccc(C(C)(C)C)cc2)cc1C(C)(C)C (stereo not given) | inactive | 
43 | CC(C)NCC(O)COc1c(C(C)(C)C)cc(/C=C/c2ccc3c(c2)OCO3)cc1C(C)(C)C (stereo not given) | inactive | 
44 | Cc1ccc(/C=C/c2cc(C(C)(C)C)c(OCC(O)CNC(C)C)c(C(C)(C)C)c2)cc1C (stereo not given) | inactive | 
45 | CC(C)NCC(O)COc1ccc(S(=O)(=O)c2ccc(Cl)cc2)cc1 (stereo not given) | inactive | 
46 | CC(C)NCC(O)COc1c(C(C)(C)C)cc(/C=C/c2ccccc2)cc1C(C)(C)C (single isomer, unassigned; (+)) | inactive | 
47 | Cc1ccc(/C=C/c2cc(C(C)(C)C)c(OCC(O)CNC(C)C)c(C(C)(C)C)c2)cc1 (stereo not given) | inactive | 
48 | CC(C)NCC(O)COc1ccc([S+]([O-])c2ccc(Cl)cc2)cc1 (stereo not given) | inactive | 
49 | CC(C)(C)c1cc(/C=C/c2ccccc2)cc(C(C)(C)C)c1OCC(O)CNC1CCCCC1 (stereo not given) | 24% | 
50 | CCNCC(O)COc1c(C(C)(C)C)cc(/C=C/c2ccccc2)cc1C(C)(C)C (stereo not given) | 24% | 
51 | CCC(C)c1cc(/C=C/c2ccccc2)cc(C(C)CC)c1OCC(O)CNC(C)C (stereo not given) | inactive | 
52 | Cc1cc(/C=C/c2ccccc2)cc(C)c1OCC(O)CNC(C)C (stereo not given) | 31% | 
53 | CC(C)NCC(O)COc1c(C(C)(C)C)cc([S+]([O-])c2ccccc2)cc1C(C)(C)C (stereo not given) | inactive | 
54 | CN(C)CCCNCC(O)COc1c(C(C)(C)C)cc(/C=C/c2ccccc2)cc1C(C)(C)C.Cl (stereo not given) | 45% | 
55 | CCCNCC(O)COc1c(C(C)(C)C)cc(/C=C/c2ccccc2)cc1C(C)(C)C (stereo not given) | inactive | 
56 | CC(C)NCC(O)COc1c(C(C)(C)C)cc(/C=C/c2cccc3ccccc23)cc1C(C)(C)C (stereo not given) | inactive | 
57 | CCc1cc(/C=C/c2ccccc2C(F)(F)F)cc(CC)c1OCC(O)CNC(C)C (stereo not given) | 20% | 
58 | CC(C)(C)NCC(O)COc1c(C(C)(C)C)cc(/C=C/c2ccccc2)cc1C(C)(C)C (stereo not given) | 20% | 
59 | CNCC(O)COc1c(C(C)(C)C)cc(/C=C/c2ccccc2)cc1C(C)(C)C.O.O=C(O)C(=O)O (stereo not given) | 44% | 
